Converted amounts (≈) assume the structure as drawn. Like-named read-outs stand apart in the source and are kept apart here. Starred links: 1 amine or outer side, 2 acyl side, 3 side chain; linkers in the order of their positions; H or OH if unused. Positions of bridges follow the written chain, without caps; N, C: chain ends. Non-standard residues stand in square brackets, D forms with d. Residues, ends and D or L forms follow the SMILES beside them. *: point of attachment. FITC = O=C1OC2(c3ccc(O)cc3Oc3cc(O)ccc32)c2ccc(NC(=S)*)cc21; X1 = O=C([C@]1(CC=[*:3])CCCN1[*:1])[*:2]; S5 = C=CCCC[C@](C)(N)C(=O)O; Nle = CCCC[C@H](N)C(=O)O; βAla = NCCC(=O)O
Assays:
[1] = molecular target: T1, ERβ LBD (Homo sapiens, UniProt Q92731); experiment: Competition fluorescence polarization (FP) binding assay with FITC-ERL4 probe
T1 construct: pET28a+ vector containing ERβ LBD (residues from 261 to 500) along with an N-terminal His6-yBBr-TEV tag; His6 (N); yBBr (N); TEV cleavage site (N); made in house; host or cells: E. coli BL21(DE3) pLysS
Experimental: In addition to the PAMPA assay, to study the affinity of the first-generation ProLock™ stapled peptides to the Estrogen receptor p ligand-binding domain (ERβ LBD), a fluorescence polarization (FP) binding assay in competition format was used in the presence of the endogenous ERβ LBD ligand estradiol. Competition Fluorescence Polarization (FP) assay was performed on the peptides to determine their half-maximal effective concentration (EC50). To do this, FITC labeled ERL4 peptide (FITC-βAla-His-Pro-Leu-Leu-Nle-Arg-Leu-Leu-Leu-Ser-Pro-CONH2) was synthesized to be used as a fluorescence probe based on existing literature (Fuchs et al., Journal of the American Chemical Society 2013, 135 (11), 4364-4371). Direct FP was performed in black 384-well plates (Corning). The final volume of each assay well was 40 μL with constant concentration of FITC labeled ERL4 peptide (10 nM) and variable concentrations of ERβ LBD protein.
ERβ LBD expression and purification was performed as follows. BL21(DE3) pLysS E. coli cells were transformed with a pET28a+ vector containing ERβ LBD (residues from 261 to 500) along with an N-terminal His6-yBBr-TEV tag. An overnight culture in 10 mL of TB media containing 50 μg/mL kanamycin was prepared from a single bacterial colony. The overnight culture was subsequently added to 1 liter of autoclaved TB media containing 50 μg/mL kanamycin and shaken at 37° C. until an OD of 0.6-0.8 was reached. IPTG was added to the culture and left shaking for 6 hours. Bacterial culture was pelleted and resuspended in lysis buffer. Resuspended bacterial culture was incubated at 0° C. for 10 minutes before sonication at 65% amplitude with 10-sec cycles using a Branson Sonifier. The lysate was then cleared by centrifugation at 8000×g for 20 min. […] The expected molecular weight of the ERβ LBD protein is 30.8 KDa, which molecular weight was confirmed by SDS PAGE analysis. Purified ERβ LBD was concentrated to 90 μM and was stored at −80° C. buffer.
Competition FP assays were also employed. These were performed in black 384-well plates (Corning). The final volume of each assay well was 80 μL containing constant concentrations of estradiol (1 μM) and FITC labeled ERL4 (10 nM). The ERβ LBD concentration was held constant (200 nM) while varying the concentration of ProLock stapled peptides (3-fold dilution from 10 μM). Upon addition of samples to each well, the plate was centrifuged for 10 seconds at 3000 rpm and incubated at 4° C. for 1 hour. FP measurements were performed at room temperature with excitation and emission wavelengths at 485 and 535 nm using a Clariostar microplate reader (BMG Labtech). Each plate had high and low polarization samples, which are used to normalize the assay data. The competition FP results were analyzed by Prism 7 (GraphPad). The non-linear regression analysis of the data was used to determine the half-maximal effective concentration (EC50) of ProLock stapled peptides. […] The normalized FP values shown in FIG. 6 are mean±S.E.M of at least four independent replicates.

[2] = PAMPA (Parallel Artificial Membrane Permeability Assay); set-up: Papp at 5 h: dose or concentration left out as unconfirmed;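 further: Phospholipid-membrane PAMPA, donor and acceptor in DPBS pH 7.4 with 5% DMSO, 37 °C for 5 h, compound in each well quantified by reverse-phase HPLC-MS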
[3] = CHI Log D measurement (chromatographic hydrophobicity index); conditions: reverse-phase HPLC, Phenomenex Gemini C-18 column, pH 7.4
[4] = in vitro; set-up: dose or concentration left out as unconfirmed; conditions: PAMPA, pH 7.4, PAMPA Pe
[5] = physchem; conditions: pH 7.4
[6] = molecular target: T2, Estrogen receptor β ligand-binding domain (ERβ LBD), residues 261 to 500, with N-terminal His6-yBBr-TEV tag (UniProt Q92731 261-500); experiment: direct fluorescence polarization; 10 nM probe, ERβ LBD titrated from 5 µM with estradiol; 1:1 binding model with Hill slope
T2 construct: range 261-500; Expressed in E. coli BL21(DE3) pLysS from pET28a+, purified by Ni-NTA and SEC; Assays were run in the presence of estradiol; also called ER LBD; not shown: N-terminal His6-yBBr-TEV tag
T2 sequence (Q92731 261-500): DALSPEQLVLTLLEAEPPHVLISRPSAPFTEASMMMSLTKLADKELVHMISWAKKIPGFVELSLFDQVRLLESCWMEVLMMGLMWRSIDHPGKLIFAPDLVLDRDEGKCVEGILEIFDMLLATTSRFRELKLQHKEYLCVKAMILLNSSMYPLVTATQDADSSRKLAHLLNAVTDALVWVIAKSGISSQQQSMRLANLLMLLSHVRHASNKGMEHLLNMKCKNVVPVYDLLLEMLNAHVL

**Q.** Which EC50 [1] does the source give for `CNC(=O)[C@H](Cc1ccc(O)cc1)NC(=O)[C@H](Cc1c[nH]cn1)NC(=O)[C@H](CC(C)C)NC(=O)[C@H](CC(C)C)NC(=O)[C@H](CCCNC(=N)N)NC(=O)[C@]1(C)CCCC=CC[C@]2(CCCN2C(C)=O)C(=O)N[C@@H](CC(C)C)C(=O)N[C@@H](CC(C)C)C(=O)N1` [PLL4-3, Ac-PL3-Leu-Leu-S5-Arg-Leu-Leu-His-Tyr-NHMe] (Ac-[X1]LL[S5]RLLHY-NHMe; staple 1-4) here?
**A.** 700 nM

**Q.** What about the Papp at 5 h ([2]; PAMPA, pH 7.4) of the same molecule?
**A.** < 0.1 ×10⁻⁶ cm/s

**Q.** What about the “% Retention” value ([2]; Table 5, compound retained in solution at the end of the PAMPA assay compared to the input sample) of the same molecule?
**A.** 73 ± 4%

**Q.** And the chromatographic logD [3]?
**A.** 2.7

**Q.** With `CNC(=O)[C@H](Cc1ccc(O)cc1)NC(=O)[C@@H](NC(=O)[C@H](CC(C)C)NC(=O)[C@H](CC(C)C)NC(=O)[C@H](CC(N)=O)NC(=O)[C@]1(C)CCCC=CC[C@]2(CCCN2C(C)=O)C(=O)N[C@@H](CCCCN)C(=O)N[C@@H](CC(C)C)C(=O)N1)[C@@H](C)O` [PLL4-5, Ac-PL3-Lys-Leu-S5-Asn-Leu-Leu-Thr-Tyr-NHMe] (Ac-[X1]KL[S5]NLLTY-NHMe; staple 1-4) as the molecule, how does the EC50 ([1]; binding towards the ERβ LBD, read-out: EC50) read?
**A.** 3000 nM

**Q.** And the “PAMPA Pe” value?
**A.** 0.7 ± 0.2 (×10^−6) cm/sec

**Q.** What about the “% Retention” value (PAMPA) of the same molecule?
**A.** 74 ± 3%

**Q.** What about the Papp at 5 h [4] of the same molecule?
**A.** 0.7 ± 0.2 ×10⁻⁶ cm/s

**Q.** And the solubility [5]?
**A.** 880 µM (≈ 1030 µg/mL)

**Q.** What about the chromatographic logD [3] of the same molecule?
**A.** 1.8

B1: FITC labeled ERL4 peptide (FITC-βAla-His-Pro-Leu-Leu-Nle-Arg-Leu-Leu-Leu-Ser-Pro-CONH2) (peptide)
peptide: {FITC}-[βAla]HPLL[Nle]RLLLSP-NH2
notes: Fluorescent probe of the FP assays; also called FITC-ERL4; FITC-ERL4 probe
**Q.** With B1 as the molecule, how does the Kd [6] read?
**A.** 160 nM
